Results published in US8597904B2, “Pharmaceutical compositions for the treatment of conditions responsive to proteasome inhibition” (priority 2007, dated 2013).
Read-outs that look alike come from different tables or passages of the source.

Assays:
SKOV3 cells [1] = assay: sulphorhodamine B (SRB) cell viability / proliferation assay; type: cell-based, human
From the text: The mammalian cell lines used to test the effects of syringolin A were human neuroblastoma (NB) cells with either wild type p53 (line SK-N-SH, provided by the American Type Culture Collection [ATCC], Manassas, Va.; Davidoff, et al. 1992. Oncogene 7:127-133; McKenzie, et al. 1999. Clin. Cancer Res. 5:4199-4207; Tweddle, et al. 2001. Am. J. Pathol. 158:2067-2077), mutant p53 (line LAN-1, cysteine to stop codon at residue 182, provided by Dr. Robert Seeger, University of California, Los Angeles, Calif.; Davidoff, et al. 1992. Oncogene 7:127-133; Tweddle, et al. 2001. Cancer Res. 61:8-13; Tweddle, et al. 2003. […] Cells were seeded 18-24 hours before GlbA or SylA treatment and analyzed after 24 and/or 48 hours. Cell numbers were determined using a haemacytometer in the presence of trypan blue (Fisher Scientific, Pittsburgh, Pa.).
To then test the effects of syringolin A on proliferation, cells at 0.25-0.5×10^5 cells per ml were seeded in 96-well microtiter plates containing 100 μl of culture medium per well. […] Cells were incubated for 48 hours, photographed, and the viability of cells (calculated as a percentage of control cell counts) was determined using the sulphorhodamine B (SRB) assay as previously reported (Skehan, et al. 1990. J. Natl. Cancer Inst. 82:1107-1112, which is incorporated herein by reference in its entirety). […]

SK-N-SH cells [2] = conditions: values from previous studies with SylA (Coleman et al. 2006); cited from earlier work
[3] = system: β-actin, procaspase-3 and protein kinase Akt/PKB; assay: Western blot of β-actin, procaspase-3 and Akt/PKB in syringolin A-treated cells; type: cell-based, human; conditions: 20 μM, 48 hours
bovine pancreas trypsin = molecular target: T1, bovine pancreas trypsin (Bos taurus, UniProt P00760); assay: SensoLyte Green Protease Fluorometric Assay, trypsin inhibition; type: biochemical; conditions: syringolin A up to 500 μM
T1 construct: bovine pancreas trypsin (Pierce); purchased Pierce; host or cells: bovine pancreas
Protocol: To test the specificity of syringolin A inhibition of proteasome activities, bovine pancreas trypsin (Pierce) and Papaya latex papain (Sigma-Aldrich) inhibition assays with syringolin A were performed with the SensoLyte™ Green Protease Fluorometric Assay Kit (AnaSpec., San Jose, Calif., USA) according to the instructions of the manufacturer. Reaction volumes of 100 μl contained an enzyme concentration of 200 ng/ml and various amounts of test inhibitors. Protease activity was monitored at 33° C. in a FluoroCount Microplate Fluorometer (FluoroCount, Packard, Canberra, Australia) using 485 nm excitation and a 550 nm emission filters.

SKOV3 cells [4] = assay: CellTiter 96 Aqueous One (MTS) cell proliferation assay; type: cell-based, human
Protocol: (§1) The CellTiter 96 Aqueous One solution Cell Proliferation Assay (2-(4,5-dimethylthiazol-2-yl)-5-(3-carboxymethoxyphenyl)-2-(4-sulfophenyl)-2H-tetrazolium, inner salt; MTS) (Promega, San Luis Obispo, Calif.) was used to determine the viability of cells treated with GlbA and SylA. Briefly, SK-N-SH and SKOV3 cells were seeded in clear, 96 well plates, as described (Example 11), and cultured for 18-24 hours. Ten μl GlbA or SylA were added at different concentrations (0-100 μM) and incubated for 48 hours. After the experiment, 20 uL of tetrazolium CellTiter 96 Aqueous One Solution Reagent was added to wells, incubated for 75-150 min. at 37° C. The absorbance was measured at 490 nm using a Perkin Elmer HTS7000 Plus bioassay reader.

SK-N-SH cells [5] = assay: as above; type: cell-based, human
Protocol: as §1

SK-N-SH cells [6] = assay: microscopy of treated SK-N-SH cells for membrane blebbing; type: cell-based, human
Akt/PKB = assay: Western blot of Akt/PKB and phosphorylation at Ser473 in SK-N-SH cells; type: cell-based, human
Protocol: Since Akt/PKB is a well-characterized anti-apoptotic protein, total Akt/PKB levels were measured in treated cells in addition to determining the protein's phosphorylation status at residue Ser473, which is indicative of its activity. SK-N-SH cells were treated with GlbA in the presence or absence of 3-MA, and cell lysates were analyzed for Akt/PKB.

T1 sequence (P00760 24-246): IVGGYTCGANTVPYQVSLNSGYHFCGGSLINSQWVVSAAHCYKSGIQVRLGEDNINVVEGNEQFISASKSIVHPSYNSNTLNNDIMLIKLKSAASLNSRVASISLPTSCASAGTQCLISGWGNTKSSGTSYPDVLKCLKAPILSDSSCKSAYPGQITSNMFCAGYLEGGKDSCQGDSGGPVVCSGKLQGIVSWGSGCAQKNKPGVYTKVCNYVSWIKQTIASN

| Structure (SMILES) | cell morphology (SKOV3 cells [1]; SKOV3, 25 μM, no detachment or floating cells) | cell proliferation rate (SKOV3 cells [1]; SKOV3, dose-dependent) | EC50 (SK-N-SH cells [2]) [µM] | levels of β-actin, procaspase-3 and protein kinase Akt/PKB [3] | trypsin activity (bovine pancreas trypsin) | EC50 (SKOV3 cells [4]; Homo sapiens, SK-OV-3, 48 hours, MTS) [µM] | cell morphology (SKOV3 cells [4]; SKOV3, 48 hours) | effectiveness of GlbA relative to SylA (SKOV3 cells [4]; SKOV3, ratio of EC50) [fold] | cell morphology (SK-N-SH cells [5]; 48 hours) | EC50 (SK-N-SH cells [5]; Homo sapiens, 48 hours, MTS) [µM] | effectiveness of GlbA relative to SylA (SK-N-SH cells [5]; ratio of EC50) | membrane blebbing / apoptotic effects by microscopy (SK-N-SH cells [6]) | Akt/PKB phosphorylation at Ser473 (Akt/PKB; GlbA treatment) | total Akt/PKB levels (Akt/PKB; GlbA treatment) | Akt/PKB phosphorylation at Ser473 after pre-treatment with 3-MA (Akt/PKB; GlbA with 3-MA pre-treatment) |
| --- | --- | --- | --- | --- | --- | --- | --- | --- | --- | --- | --- | --- | --- | --- | --- |
| CC(C)[C@H](NC(=O)N[C@H](C(=O)N[C@H]1/C=C/CCNC(=O)/C=C/[C@H](C(C)C)NC1=O)C(C)C)C(=O)O [syringolin A] | affected the cell morphology | reduced the cell proliferation rate | ~20 | decreased | not affected | – | – | – | – | – | – | – | – | – | – |
| CCCCCCC/C=C/C=C/C(=O)N[C@H](C(=O)N[C@H]1C[C@@H](O)CCNC(=O)/C=C/[C@H](C)NC1=O)[C@@H](C)O [glidobactin A] | – | – | – | – | – | ~0.8 | severe morphological changes | ~25 | severe morphological changes | ~0.14 | about 143 fold | presence of membrane blebbing | phosphorylated at Ser473 | slight decrease | prevented |
